Experimental data: patent publication US9777000B2, “Pyrazole derivative” (MOCHIDA PHARMACEUTICAL CO., LTD., priority 2013, dated 2017)

What follows are molecules tested against human PDE10 (Homo sapiens (Human), UniProt Q9Y233) (assay: Evaluation of enzyme inhibitory activity: human PDE10 inhibitory effect (IMAP TR-FRET)). Settings: cAMP substrate.
Assay type: biochemical
Description: (Evaluation of Enzyme Inhibitory Activity: Human PDE10 Inhibitory Effect)
IMAP TR-FRET Phosphodiersterase Evaluation Assay Kit (Molecular Device) was used for the measurement. Ten μL of a diluted test compound having each concentration and 5 μL of the enzyme PDE10 (BPA Bioscience) that had been diluted to 2 ng/mL with 1×IMAP Reaction Buffer (prepared with 5×included with the kit, 10 mM Tris-HCl, pH=7.2, 10 mM MgCl2, 0.05% NaN3, and 0.1% BSA) containing 0.1% BSA were added to a 384-well plate (Corning). The obtained mixture was then pre-incubated at room temperature for 5 minutes. Thereafter, 5 μL of cAMP substrate solution which was included with the kit and diluted to 400 nM with 1×IMAP Reaction Buffer containing 0.1% BSA, was added to the reaction solution, and the obtained mixture was reacted at room temperature for 60 minutes. Thereafter, 60 μL of an IMAP TR-FRET Binding solution included with the kit was further added to the reaction solution, and the obtained mixture was then left for 3 hours or more. Subsequently, using ARVO SX (PerkinElmer), the fluorescent intensity of Terbium (Emission=490 nm) and TR-FRET (Emission=520 nm) in the reaction solution were measured at an excitation wavelength of 340 nm, so as to calculate the amount of the generated 5′-AMP. The count of a well to which a solvent had been added instead of the test compound was set at 0%, and the count of a well to which the enzyme PDE10 had not been added was set at 100%. Thus, the inhibitory activity of each test compound was calculated.
The PDE10 inhibitory activity of the test compound was indicated with an IC50 value. […] The test compounds are shown in Table 3 (Table 3-1 and Table 3-2).

Sequence of human PDE10 (Q9Y233 whole entry): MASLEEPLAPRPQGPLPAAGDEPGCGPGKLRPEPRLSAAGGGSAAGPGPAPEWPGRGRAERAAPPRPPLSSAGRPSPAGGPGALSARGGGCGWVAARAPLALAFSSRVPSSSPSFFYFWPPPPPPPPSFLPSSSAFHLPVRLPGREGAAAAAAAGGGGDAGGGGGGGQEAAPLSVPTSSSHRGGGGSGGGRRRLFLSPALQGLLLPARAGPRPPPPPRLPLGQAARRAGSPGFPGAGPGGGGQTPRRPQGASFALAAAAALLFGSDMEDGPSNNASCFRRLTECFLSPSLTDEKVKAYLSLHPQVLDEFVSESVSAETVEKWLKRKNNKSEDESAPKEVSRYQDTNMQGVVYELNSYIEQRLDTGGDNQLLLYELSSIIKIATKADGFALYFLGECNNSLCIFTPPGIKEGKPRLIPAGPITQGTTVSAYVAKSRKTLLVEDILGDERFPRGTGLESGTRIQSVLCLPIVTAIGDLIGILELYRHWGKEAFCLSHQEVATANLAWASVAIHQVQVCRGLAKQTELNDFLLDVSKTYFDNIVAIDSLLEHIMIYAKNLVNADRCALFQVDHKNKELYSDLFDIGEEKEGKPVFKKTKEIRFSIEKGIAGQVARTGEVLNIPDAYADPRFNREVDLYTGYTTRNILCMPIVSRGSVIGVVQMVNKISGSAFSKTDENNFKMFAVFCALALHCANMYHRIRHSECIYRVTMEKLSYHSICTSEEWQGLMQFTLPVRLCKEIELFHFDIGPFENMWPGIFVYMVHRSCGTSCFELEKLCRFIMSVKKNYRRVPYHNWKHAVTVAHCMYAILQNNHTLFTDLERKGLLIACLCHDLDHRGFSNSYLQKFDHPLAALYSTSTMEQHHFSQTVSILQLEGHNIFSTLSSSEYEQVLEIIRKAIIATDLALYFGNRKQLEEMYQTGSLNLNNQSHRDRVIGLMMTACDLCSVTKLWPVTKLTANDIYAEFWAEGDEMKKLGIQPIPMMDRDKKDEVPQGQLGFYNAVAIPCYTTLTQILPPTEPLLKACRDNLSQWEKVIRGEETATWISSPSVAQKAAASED

IC50, < 5 nM:
Cc1nc(C)c(C)c(-c2cnn(C)c2C(=O)Nc2cc3nc(-c4ccccc4)nn3cc2F)n1 [Example 3.37, N-(6-fluoro-2-phenyl-[1,2,4]triazolo[1,5-a]pyridin-7-yl)-1-methyl-4-(2,5,6-trimethylpyrimidin-4-yl)-1H-pyrazole-5-carboxamide]
Cc1ncnc(-c2cnn(C)c2C(=O)Nc2cc3nc(-c4ccccc4)nn3cc2F)c1F [Example 3.38, N-(6-fluoro-2-phenyl-[1,2,4]triazolo[1,5-a]pyridin-7-yl)-4-(5-fluoro-6-methylpyrimidin-4-yl)-1-methyl-1H-pyrazole-5-carboxamide]
Cc1cc(-c2cnn(C)c2C(=O)Nc2cc3nc(-c4ccccc4)nn3cc2F)ncn1 [Example 3.39, N-(6-fluoro-2-phenyl-[1,2,4]triazolo[1,5-a]pyridin-7-yl)-1-methyl-4-(6-methylpyrimidin-4-yl)-1H-pyrazole-5-carboxamide]
Cc1ncc(Cl)c(-c2cnn(C)c2C(=O)Nc2cc3nc(-c4ccccc4)nn3cc2F)n1 [Example 3.41, 4-(5-chloro-2-methylpyrimidin-4-yl)-N-(6-fluoro-2-phenyl-[1,2,4]triazolo[1,5-a]pyridin-7-yl)-1-methyl-1H-pyrazole-5-carboxamide]
COc1cncc(-c2cnn(C)c2C(=O)Nc2cc3nc(-c4ccccc4)nn3cc2F)n1 [Example 3.42, N-(6-fluoro-2-phenyl-[1,2,4]triazolo[1,5-a]pyridin-7-yl)-4-(6-methoxypyrazin-2-yl)-1-methyl-1H-pyrazole-5-carboxamide]
Cc1ccnc(-c2cnn(C)c2C(=O)Nc2cc3nc(-c4ccccc4)nn3cc2F)n1 [Example 3.43, N-(6-fluoro-2-phenyl-[1,2,4]triazolo[1,5-a]pyridin-7-yl)-1-methyl-4-(4-methylpyrimidin-2-yl)-1H-pyrazole-5-carboxamide]
Cc1cc(C)nc(-c2cnn(C)c2C(=O)Nc2cc3nc(-c4ccccc4)nn3cc2F)n1 [Example 3.44, 4-(4,6-dimethylpyrimidin-2-yl)-N-(6-fluoro-2-phenyl-[1,2,4]triazolo[1,5-a]pyridin-7-yl)-1-methyl-1H-pyrazole-5-carboxamide]
Cc1ccc(-c2cnn(C)c2C(=O)Nc2cc3nc(-c4ccccc4)nn3cc2F)nn1 [Example 3.45, N-(6-fluoro-2-phenyl-[1,2,4]triazolo[1,5-a]pyridin-7-yl)-1-methyl-4-(6-methylpyridazin-3-yl)-1H-pyrazole-5-carboxamide]
Cc1cnnc(-c2cnn(C)c2C(=O)Nc2cc3nc(-c4ccccc4)nn3cc2F)c1 [Example 3.46, N-(6-fluoro-2-phenyl-[1,2,4]triazolo[1,5-a]pyridin-7-yl)-1-methyl-4-(5-methylpyridazin-3-yl)-1H-pyrazole-5-carboxamide]
Cn1ncc(-c2cccnn2)c1C(=O)Nc1cc2nc(-c3ccccc3)nn2cc1F [Example 3.47, N-(6-fluoro-2-phenyl-[1,2,4]triazolo[1,5-a]pyridin-7-yl)-1-methyl-4-(pyridazin-3-yl)-1H-pyrazole-5-carboxamide]
Cn1cnc(-c2cnn(C)c2C(=O)Nc2cc3nc(-c4ccccc4)nn3cc2F)c1 [Example 3.48, N-(6-fluoro-2-phenyl-[1,2,4]triazolo[1,5-a]pyridin-7-yl)-1-methyl-4-(1-methyl-1H-imidazol-4-yl)-1H-pyrazole-5-carboxamide]
Cc1ncc(C)c(-c2cnn(C)c2C(=O)Nc2cc3nc(-c4cccnc4)nn3cc2F)n1 [Example 3.49, 4-(2,5-dimethylpyrimidin-4-yl)-N-(6-fluoro-2-(pyridin-3-yl)-[1,2,4]triazolo[1,5-a]pyridin-7-yl)-1-methyl-1H-pyrazole-5-carboxamide]
Cc1ccc(-c2cnn(C)c2C(=O)Nc2cc3nc(-c4ccccc4)nn3cc2F)nc1 [Example 3.51, N-(6-fluoro-2-phenyl-[1,2,4]triazolo[1,5-a]pyridin-7-yl)-1-methyl-4-(5-methylpyridin-2-yl)-1H-pyrazole-5-carboxamide]
COc1ccnc(-c2cnn(C)c2C(=O)Nc2cc3nc(-c4ccccc4)nn3cc2F)c1 [Example 3.52, N-(6-fluoro-2-phenyl-[1,2,4]triazolo[1,5-a]pyridin-7-yl)-4-(4-methoxypyridin-2-yl)-1-methyl-1H-pyrazole-5-carboxamide]
Cc1cc(C)nc(-c2cnn(C)c2C(=O)Nc2cc3nc(-c4ccc(F)cc4)nn3cc2F)c1 [Example 3.54, 4-(4,6-dimethylpyridin-2-yl)-N-(6-fluoro-2-(4-fluorophenyl)-[1,2,4]triazolo[1,5-a]pyridin-7-yl)-1-methyl-1H-pyrazole-5-carboxamide]
Cc1ccnc(-c2cnn(C)c2C(=O)Nc2ccn3nc(N4CCC[C@@H]4C)nc3c2)c1 [Example 4.4, (S)-1-methyl-4-(4-methylpyridin-2-yl)-N-(2-(2-methylpyrrolidin-1-yl)-[1,2,4]triazolo[1,5-a]pyridin-7-yl)-1H-pyrazole-5-carboxamide]
COc1ccnc(-c2cnn(C)c2C(=O)Nc2ccn3nc(N4CCC[C@@H]4C)nc3c2)c1 [Example 4.5, (S)-4-(4-methoxypyridin-2-yl)-1-methyl-N-(2-(2-methylpyrrolidin-1-yl)-[1,2,4]triazolo[1,5-a]pyridin-7-yl)-1H-pyrazole-5-carboxamide]
Cc1cncc(-c2cnn(C)c2C(=O)Nc2ccn3nc(N4CCC[C@@H]4C)nc3c2)n1 [Example 4.6, (S)-1-methyl-4-(6-methylpyrazin-2-yl)-N-(2-(2-methylpyrrolidin-1-yl)-[1,2,4]triazolo[1,5-a]pyridin-7-yl)-1H-pyrazole-5-carboxamide]
Cc1cccc(-c2cnn(C)c2C(=O)Nc2ccn3nc(N4CCC[C@@H]4C)nc3c2)n1 [Example 4.7, (S)-1-methyl-4-(6-methylpyridin-2-yl)-N-(2-(2-methylpyrrolidin-1-yl)-[1,2,4]triazolo[1,5-a]pyridin-7-yl)-1H-pyrazole-5-carboxamide]
Cc1cc(C)nc(-c2cnn(C)c2C(=O)Nc2ccn3nc(N4CCC[C@@H]4C)nc3c2)c1 [Example 4.8, (S)-4-(4,6-dimethylpyridin-2-yl)-1-methyl-N-(2-(2-methylpyrrolidin-1-yl)-[1,2,4]triazolo[1,5-a]pyridin-7-yl)-1H-pyrazole-5-carboxamide]
Cc1sc(-c2cnn(C)c2C(=O)Nc2ccn3nc(N4CCC[C@@H]4C)nc3c2)nc1C(F)F [Example 4.9, (S)-4-(4-(difluoromethyl)-5-methylthiazol-2-yl)-1-methyl-N-(2-(2-methylpyrrolidin-1-yl)-[1,2,4]triazolo[1,5-a]pyridin-7-yl)-1H-pyrazole-5-carboxamide]
Cn1ncc(-c2nc(C(F)F)cs2)c1C(=O)Nc1ccn2nc(N3CC[C@@H](F)C3)nc2c1 [Example 4.12, (R)-4-(4-(difluoromethyl)thiazol-2-yl)-N-(2-(3-fluoropyrrolidin-1-yl)-[1,2,4]triazolo[1,5-a]pyridin-7-yl)-1-methyl-1H-pyrazole-5-carboxamide]
Cn1ncc(-c2nc(C(F)(F)F)cs2)c1C(=O)Nc1ccn2nc(N3CC[C@@H](F)C3)nc2c1 [Example 4.13, (R)-N-(2-(3-fluoropyrrolidin-1-yl)-[1,2,4]triazolo[1,5-a]pyridin-7-yl)-1-methyl-4-(4-(trifluoromethyl)thiazol-2-yl)-1H-pyrazole-5-carboxamide]
Cn1ncc(-c2nc(C(F)F)cs2)c1C(=O)Nc1ccn2nc(N3CC[C@H](F)C3)nc2c1 [Example 4.15, (S)-4-(4-(difluoromethyl)thiazol-2-yl)-N-(2-(3-fluoropyrrolidin-1-yl)-[1,2,4]triazolo[1,5-a]pyridin-7-yl)-1-methyl-1H-pyrazole-5-carboxamide]
Cn1ncc(-c2cccc(C(F)(F)F)n2)c1C(=O)Nc1ccn2nc(N3CC[C@H](F)C3)nc2c1 [Example 4.16, (S)-N-(2-(3-fluoropyrrolidin-1-yl)-[1,2,4]triazolo[1,5-a]pyridin-7-yl)-1-methyl-4-(6-(trifluoromethyl)pyridin-2-yl)-1H-pyrazole-5-carboxamide]
Cc1ccnc(-c2cnn(C)c2C(=O)Nc2ccn3nc(N4CC[C@H](F)C4)nc3c2)c1 [Example 4.17, (S)-N-(2-(3-fluoropyrrolidin-1-yl)-[1,2,4]triazolo[1,5-a]pyridin-7-yl)-1-methyl-4-(4-methylpyridin-2-yl)-1H-pyrazole-5-carboxamide]
